Experimental data reported in PubChem BioAssay (NCI).
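Growth conditions: 96-well plates. Treatment: test compound, 48 hours, 5 concentrations. Analysis: linear interpolation between bracketing concentrations; unreached endpoints set to highest concentration. At the GI50, growth is halved. TGI is the concentration that stops growth completely.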

Key:
Assay in all cases: NCI tumour cell line growth inhibition, 48 h
[1] = system: SW-620 colon
[2] = system: SNB-19 CNS
[3] = system: RPMI-8226 leukemia
[4] = system: HOP-62 NSCLC
[5] = system: T-47D breast
[6] = system: SK-MEL-2 melanoma
[7] = system: PC-3 prostate
[8] = system: HL-60(TB) leukemia
[9] = system: LOX IMVI melanoma
[10] = system: SR leukemia
[11] = system: HOP-92 NSCLC
[12] = system: RXF 393 renal
[13] = system: HT29 colon
[14] = system: COLO 205 colon
[15] = system: CCRF-CEM leukemia
[16] = system: SK-OV-3 ovarian
[17] = system: IGROV1 ovarian
[18] = system: SF-295 CNS
[19] = system: OVCAR-8 ovarian
[20] = system: A498 renal
[21] = system: OVCAR-5 ovarian
[22] = system: BT-549 breast
[23] = system: DU-145 prostate
[24] = system: ACHN renal
[25] = system: K-562 leukemia
[26] = system: HCT-15 colon
[27] = system: SF-539 CNS
[28] = system: MALME-3M melanoma
[29] = system: NCI/ADR-RES ovarian
[30] = system: SK-MEL-28 melanoma
[31] = system: HCC-2998 colon
[32] = system: A549 NSCLC
[33] = system: CAKI-1 renal
[34] = system: KM12 colon
[35] = system: MCF7 breast
[36] = system: SK-MEL-5 melanoma
[37] = system: SF-268 CNS
[38] = system: SN12C renal
[39] = system: MDA-MB-435
[40] = system: TK-10 renal
[41] = system: SNB-75 CNS
[42] = system: MOLT-4 leukemia
[43] = system: EKVX NSCLC
[44] = system: M14 melanoma
[45] = system: HS 578T breast
[46] = system: NCI-H460 lung
[47] = system: U251 CNS
[48] = system: UACC-62 melanoma
[49] = system: NCI-H23 lung
[50] = system: HCT-116 colon
[51] = system: NCI-H522 lung
[52] = system: UACC-257 melanoma
[53] = system: NCI-H226 lung
[54] = system: 786-0 renal
[55] = system: OVCAR-4 ovarian
[56] = system: OVCAR-3 ovarian
[57] = system: MDA-MB-231 breast
[58] = system: UO-31 renal

`NC(=O)c1c(Br)n(C2OC(CO)C(O)C2O)c2ncnc(N)c12` (stereo not given) was tested, and the GI50 [1] was 0.545 µM, the TGI [1] was 9.87 µM and the GI50 [2] was 5.16 µM. It also gave a TGI [2] of 59.8 µM, a GI50 [3] of 1.87 µM and a TGI [3] of 7.51 µM. For the same molecule, the GI50 [4] was 2.86 µM, the TGI [4] was 25.3 µM and the GI50 [5] was 0.132 µM. It also gave a TGI [5] of 2.88 µM, a GI50 [6] of 1.82 µM and a TGI [6] of 5.62 µM. For the same molecule, the GI50 [7] was 0.593 µM, the TGI [7] was 7.57 µM and the GI50 [8] was 0.702 µM. It also gave a TGI [8] of 4.11 µM, a GI50 [9] of 0.684 µM and a TGI [9] of 6.09 µM. For the same molecule, the GI50 [10] was 1.11 µM, the TGI [10] was 4.9 µM and the GI50 [11] was 0.45 µM. The TGI [11] was 7.08 µM, the GI50 [12] was 1.37 µM and the TGI [12] was 12.9 µM. The GI50 [13] was 1.03 µM, the TGI [13] was 32 µM and the GI50 [14] was 1.45 µM. The TGI [14] was 6.07 µM, the GI50 [15] was 0.8 µM and the TGI [15] was 6.37 µM. The GI50 [16] was 1.05 µM, the TGI [16] was 9.95 µM and the GI50 [17] was 0.609 µM. It also gave a TGI [17] of 3.95 µM, a GI50 [18] of 2.78 µM and a TGI [18] of 18.7 µM. The GI50 [19] was 0.763 µM, the TGI [19] was 12.3 µM and the GI50 [20] was 3.09 µM. For the same molecule, the TGI [20] was 15.6 µM, the GI50 [21] was 1.39 µM and the TGI [21] was 45.5 µM. It also gave a GI50 [22] of 1.08 µM, a TGI [22] of 11.2 µM and a GI50 [23] of 0.544 µM. The TGI [23] was 8.86 µM, the GI50 [24] was 0.749 µM and the TGI [24] was 10.4 µM. The GI50 [25] was 1.43 µM, the TGI [25] was over 60.4 µM and the GI50 [26] was 0.427 µM. For the same molecule, the TGI [26] was 7.03 µM, the GI50 [27] was 2.43 µM and the TGI [27] was 8.73 µM. The GI50 [28] was 1.47 µM, the TGI [28] was 6.34 µM and the GI50 [29] was 1.34 µM. It also gave a TGI [29] of 12.5 µM, a GI50 [30] of 3.02 µM and a TGI [30] of 13.8 µM. It also gave a GI50 [31] of 1.71 µM, a TGI [31] of 13.2 µM and a GI50 [32] of 1.97 µM. It also gave a TGI [32] of 21.4 µM, a GI50 [33] of 0.369 µM and a TGI [33] of 2.43 µM. For the same molecule, the GI50 [34] was 1.91 µM, the TGI [34] was 12.3 µM and the GI50 [35] was 0.246 µM. The TGI [35] was 2.72 µM, the GI50 [36] was 2.65 µM and the TGI [36] was 9.85 µM. The GI50 [37] was 2.49 µM, the TGI [37] was 13.4 µM and the GI50 [38] was 1.61 µM. The TGI [38] was 12.9 µM, the GI50 [39] was 1.73 µM and the TGI [39] was 7.68 µM. For the same molecule, the GI50 [40] was 0.839 µM, the TGI [40] was 13.7 µM and the GI50 [41] was 1.92 µM. The TGI [41] was 18 µM, the GI50 [42] was 0.36 µM and the TGI [42] was 3.46 µM. The GI50 [43] was 4.31 µM, the TGI [43] was 59.8 µM and the GI50 [44] was 1.19 µM. For the same molecule, the TGI [44] was 8.76 µM, the GI50 [45] was 1.48 µM and the TGI [45] was 9.36 µM. It also gave a GI50 [46] of 1.8 µM, a TGI [46] of 12.5 µM and a GI50 [47] of 2.92 µM. The TGI [47] was over 86.4 µM, the GI50 [48] was 1.63 µM and the TGI [48] was 3.83 µM. For the same molecule, the GI50 [49] was 2.15 µM, the TGI [49] was 13 µM and the GI50 [50] was 0.71 µM. The TGI [50] was over 53.4 µM, the GI50 [51] was 2.54 µM and the TGI [51] was 11 µM. The GI50 [52] was 2.99 µM, the TGI [52] was 18.4 µM and the GI50 [53] was 4.78 µM. The TGI [53] was 57.6 µM, the GI50 [54] was 3.04 µM and the TGI [54] was 41.9 µM. It also gave a GI50 [55] of 1.14 µM, a TGI [55] of 15.3 µM and a GI50 [56] of 1.24 µM. For the same molecule, the TGI [56] was 5.59 µM, the GI50 [57] was 3.55 µM and the TGI [57] was 29.1 µM. It also gave a GI50 [58] of 2.16 µM and a TGI [58] of 13.6 µM.

`O=C1CCc2c(Oc3ccc4c(c3)[C@H]3[C@@H](O4)[C@@H]3c3nc4ccc(C(F)(F)F)cc4[nH]3)ccnc2N1` showed a GI50 [1] of 2.43 µM, a TGI [1] of over 100 µM and a GI50 [2] of 4.52 µM. For the same molecule, the TGI [2] was over 100 µM, the GI50 [3] was 2.56 µM and the TGI [3] was over 100 µM. For the same molecule, the GI50 [4] was 2.45 µM, the TGI [4] was over 100 µM and the GI50 [5] was 1.37 µM. The TGI [5] was over 27.1 µM, the GI50 [6] was 0.242 µM and the TGI [6] was 1.67 µM. It also gave a GI50 [7] of 3.97 µM, a TGI [7] of over 100 µM and a GI50 [8] of 0.237 µM. For the same molecule, the TGI [8] was 3.14 µM, the GI50 [9] was 0.102 µM and the TGI [9] was 4.65 µM. It also gave a GI50 [10] of 2.56 µM, a TGI [10] of over 25.2 µM and a GI50 [11] of 1.18 µM. For the same molecule, the TGI [11] was 5.68 µM, the GI50 [12] was 4.03 µM and the TGI [12] was over 100 µM. It also gave a GI50 [13] of 0.0302 µM, a TGI [13] of over 37.6 µM and a GI50 [14] of 0.0359 µM. For the same molecule, the TGI [14] was 8.39 µM, the GI50 [15] was 3.54 µM and the TGI [15] was over 100 µM. The GI50 [16] was 3.54 µM, the TGI [16] was over 100 µM and the GI50 [17] was 1.19 µM. For the same molecule, the TGI [17] was over 100 µM, the GI50 [18] was 3.63 µM and the TGI [18] was over 100 µM. The GI50 [19] was 3.12 µM, the TGI [19] was over 100 µM and the GI50 [20] was 1.12 µM. The TGI [20] was 4.24 µM, the GI50 [21] was 1.07 µM and the TGI [21] was over 100 µM. It also gave a GI50 [22] of 3.22 µM, a TGI [22] of over 100 µM and a GI50 [23] of 4.12 µM. It also gave a TGI [23] of over 100 µM, a GI50 [24] of 0.711 µM and a TGI [24] of over 100 µM. For the same molecule, the GI50 [25] was 0.0381 µM, the GI50 [26] was 2.4 µM and the TGI [26] was over 100 µM. It also gave a GI50 [27] of 4.66 µM, a TGI [27] of over 100 µM and a GI50 [28] of under 0.0137 µM. For the same molecule, the TGI [28] was 0.0613 µM, the GI50 [29] was 2.83 µM and the TGI [29] was over 100 µM. It also gave a GI50 [30] of 0.0326 µM, a TGI [30] of 3.8 µM and a GI50 [31] of 3.08 µM. For the same molecule, the TGI [31] was over 100 µM, the GI50 [32] was 2.52 µM and the TGI [32] was over 100 µM. The GI50 [33] was 1.47 µM, the TGI [33] was over 100 µM and the GI50 [34] was 0.69 µM. For the same molecule, the TGI [34] was over 100 µM, the GI50 [35] was 2.25 µM and the TGI [35] was over 100 µM. For the same molecule, the GI50 [36] was 0.435 µM, the TGI [36] was 2.91 µM and the GI50 [37] was 2.73 µM. It also gave a TGI [37] of over 100 µM, a GI50 [38] of 2.21 µM and a TGI [38] of over 100 µM. It also gave a GI50 [39] of 0.0682 µM, a TGI [39] of over 100 µM and a GI50 [40] of 1.61 µM. It also gave a TGI [40] of over 30.3 µM, a GI50 [41] of 4.39 µM and a TGI [41] of over 100 µM. It also gave a GI50 [42] of 1.66 µM, a TGI [42] of over 100 µM and a GI50 [43] of 2.99 µM. The TGI [43] was over 100 µM, the GI50 [44] was 0.026 µM and the TGI [44] was 2.71 µM. The GI50 [45] was 5.41 µM, the TGI [45] was over 100 µM and the GI50 [46] was 2.41 µM. The TGI [46] was over 100 µM, the GI50 [47] was 3.92 µM and the TGI [47] was over 100 µM. It also gave a GI50 [48] of 0.0215 µM, a TGI [48] of 1.41 µM and a GI50 [49] of 1.42 µM. The TGI [49] was over 100 µM, the GI50 [50] was 0.406 µM and the TGI [50] was over 100 µM. The GI50 [51] was 0.903 µM, the TGI [51] was over 28.1 µM and the GI50 [52] was 0.0323 µM. It also gave a GI50 [53] of 1.1 µM, a TGI [53] of over 100 µM and a GI50 [54] of 6.28 µM. It also gave a TGI [54] of over 100 µM, a GI50 [55] of 2.02 µM and a TGI [55] of over 100 µM. It also gave a GI50 [56] of 4.18 µM, a TGI [56] of over 100 µM and a GI50 [57] of 0.61 µM. The TGI [57] was 8.28 µM, the GI50 [58] was 0.693 µM and the TGI [58] was over 25.3 µM.
